Here are results for 1 compound from patent US20250122266A1, “SMART SINGLE-DOMAIN INTRABODIES WITH PRECISION SWITCHES FOR BIOMEDICAL APPLICATIONS” (THE TEXAS A&M UNIVERSITY SYSTEM, priority 2020, published 2025).

This assay concerns Mito-mCh. In words: mitochondria (Mito) translocation assay of rapabody and caffebody. Particulars: HeLa cells, GFP-caffebody and Mito-mCh. It is filed as cell-based. As to the method:
For ligand-controllable nanobodies rapabody and caffebody, similar imaging and data analysis procedures were used. Transfected HeLa cells were incubated with normal growth media or media supplemented with different concentrations of ligands or diluted beverages as indicated in the figures. Coffees and teas were purchased from Starbucks, while other drinks were purchased from a grocery store.
The instant example evaluates whether the installation of genetically-encoded chemical switches would likewise enable chemogenetic control of nanobodies. The LOV2 domain in the S3 loop of sunbody was substituted with two ligand-controllable precision switches, UniRapR and a dimeric concatemer of acVHH (2×acVHH; FIG. 23A). UniRapR, engineered from the FKBP-FRB based chemically-inducible dimerization system, has been used to enable rapamycin-induced allosteric control of a wide range of host proteins, including kinases and GTPases. Further, acVHH is known to induce self-dimerization upon addition of caffeine, and thus it was hypothesized to elicit conformational changes when inserted into a host protein as a dimeric concatemer. These intrabody compositions were named “rapabodies” and “caffebodies”, respectively, to reflect the compounds used for chemogenetic manipulation. […]

For `Cn1c(=O)c2[nH]cnc2n(C)c1=O` [theophylline], the “activation of caffebody by caffeine analog or beverages” value is “could similarly activate caffebody”.
